“Also recorded” adds a separate entry of the source.
Tests used:
[1] = system: WAT (browning of white adipose tissue); assay: In vivo DRS measurement of lipid fraction (browning marker) in adipose tissue; parameters: species or system BALB/c nude mice
Text: In particular, FIG. 5 depicts a schematic drawing of an example setup of in vivo DRS measurement system 500 for obtaining (e.g., generating or measuring) diffuse reflectance spectrum information (raw diffuse reflectance spectrum information) in a mouse model with partial skin incision using DRS spectroscopy in the NIR II optical window. In this regard, browning was induced in mice for 7 days by β-adrenergic administration followed by DRS measurement in the 1050 to 1350 nm range using an excitation-collection fiber probe 506 with source-detector fiber separations 508 configured to achieve a desired or sufficient depth of interrogation. The measured diffuse reflectance spectrum information obtained at the adipose tissue site was then processed according to various example embodiments to extract or derive water and lipid chromophore fractions (or water and lipid proportions or ratios) at the adipose tissue site in the 1050 nm to 1350 nm wavelength range. The water and lipid chromophore fractions were estimated from the measured DRS spectra by employing a lookup table (LUT) based on inverse Monte-Carlo modelling. In other words, the measured DRS spectra at the adipose tissue site is spectrally unmixed particularly for water and lipid chromophores using the Monte-Carlo based LUT within the wavelength range of 1050 nm to 1400 nm, or more preferably, 1050 nm to 1350 nm. […]

Ucp1 [2] = assay: Real-Time qPCR of Ucp1 mRNA in adipose tissues of treated mice; format: in vivo, BALB/c nude mice; conditions: normalized to Gapdh mRNA
Procedure: (§1) Mice (n=4; each group) were injected daily with either CL 316, 243 hydrate (1 mg/kg body weight intraperitoneally in test group (CL) or equal volume of saline in control (C) group animals for 7 days. After the in vivo DRS experiment, the mice was euthanized and fresh WAT tissues in control (C) and CL group were extracted and immediately frozen for RNA and protein expression analyses. WAT from the inguinal region and BAT from the interscapular region were stored in 10% normal buffered formalin (NBF) for hematoxylin and eosin (H&E) staining and Immunohistochemistry (IHC). BAT tissues extracted from mice injected with saline is marked as C BAT while BAT from CL injected mice as CL BAT. Similarly, WAT and beige refer to the WATs in saline (control) and CL injected group, respectively.
In various example embodiments, total RNA was extracted with the RNeasy Lipid Tissue Mini Kit (Qiagen, Hilden, Germany) according to the manufacturer's instruction and Real-Time PCR was conducted using UCP1 primer pair UCP1_F: 5′-GGCCTCTACGACTCAGTCCA-3′ and UCP1_R: 5′-TAAGCCGGCTGAGATCTTGT-3′. GAPDH was used to normalize the relative mRNA expression by using a primer pair GAPDH_F: 5′-CAA GGT CAT CCA CTT-3′ and GAPDH_R: 5′-GGC CAT CCA CAG TCT GG-3′. The results are represented as mean±SE (n=4 in each group).

Ucp1 [3] = assay: Western blot analysis of UCP1 protein in adipose tissues of treated mice; format: in vivo, BALB/c nude mice; conditions: loading control β-ACTIN, vs saline WAT, hydrate
Procedure: as §1
In various example embodiments, total protein lysates isolation from adipose tissues extracted from mice administered with either saline or CL (n=4, each group) was done in RadioImmunoPrecipitation Assay (RIPA) lysis buffer and quantified using the Biorad assay. Equal volume of proteins were loaded onto 10% Sodium Dodecyl Sulfate-Polyacrylamide Gel Electrophoresis (SDS-PAGE) followed by transfer to the PolyVinyliDene Fluoride (PVDF) membrane. […]

WAT and BAT adipocytes = assay: H&E staining of WAT and BAT of treated mice; format: in vivo, BALB/c nude mice
Procedure: as §1
(§2) In various example embodiments, H&E staining and UCP1 IHC were performed by the Advanced Molecular Pathology Laboratory (AMPL) at the Institute of Molecular and Cell Biology (IMCB), A*STAR, according to standard operating procedures. 1:50 dilution of UCP1 antibody (Abcam) at pH 6.0 was used for UCP1 IHC. All the images were obtained by using Olympus microscope equipped with DS-L3+Filc camera with a ×20 objective lens. Software ImageJ was used to analyse the images.

Ucp1 [4] = assay: UCP1 immunohistochemistry (IHC) of WAT and BAT of treated mice; format: in vivo, BALB/c nude mice
Procedure: as §1, §2

[5] = inguinal WAT, vs saline control WAT, hydrate
[6] = interscapular BAT, CL vs saline

With `C[C@H](Cc1ccc2c(c1)OC(C(=O)[O-])(C(=O)[O-])O2)NC[C@H](O)c1cccc(Cl)c1.[Na+].[Na+]` [CL, CL 316, 243 hydrate] the “lipid fraction (SLW) of beige adipose tissue (CL treated WAT)” value ([1]; mice, 1 mg/kg intraperitoneally daily for 7 days, DRS 1050 to 1350 nm, MCLUT unmixing, control WAT 0.70±0.095, BAT 0.518±0.112) was 0.628±0.076 a.u, the “extent of WAT browning indicated by calculated SLW” value ([1]; over a period of 7 days, CL treated animals) was “about 50%” and the “Ucp1 mRNA expression in BAT” value (Ucp1 [2]; BAT (CL) vs BAT (C)) was “did not significantly change”. For the same compound, the “Ucp1 mRNA expression in WAT (beige) relative to saline control (WAT)” value (Ucp1 [2]; 1 mg/kg i.p. daily, 7 days) was “significantly enhanced”, the “UCP1 protein expression in WAT (beige)” value (Ucp1 [3]) was “significantly induced; also recorded: higher expression” and the “adipocyte morphology in WAT (beige), H&E staining” value (WAT and BAT adipocytes; [5]) was “subpopulation of multilocular adipocytes are emerging”. The “adipocyte appearance in BAT, H&E staining” value (WAT and BAT adipocytes; [6]) was “appearance was not changed”, the “UCP1 IHC signal in WAT (beige)” value (Ucp1 [4]; [5]) was “significant emergence of UCP1 expression; also recorded: increased UCP1 staining” and the “UCP1 IHC signal in BAT” value (Ucp1 [4]; [6]) was “not changed”.

— US20200367756A1, “METHOD AND SYSTEM FOR IN VIVO DETECTION OF ADIPOSE TISSUE BROWNING” (Agency for Science, Technology and Research, priority 2018, published 2020)
